In patent publication US20240299334A1, “PHARMACEUTICAL COMPOSITION OF NAPHTHALENE DERIVATIVES AS MULTI-TARGETED THERAPEUTIC AGENTS FOR THE TREATMENT OF ALZHEIMER'S DISEASE” (CENTRO DE NEUROCIENCIAS DE CUBA, CNEURO, priority 2020, published 2024):

Experiments:
[1] = system: seizures induced by icv administration of kainic acid; experiment: Seizures induced by icv administration of kainic acid (Racine scale); type: in vivo, mice; details: compound 3 5 and 50 mg/kg oral, 1 h before KA icv; effect greater with 50 mg/kg
Protocol: Young male OF-1 mice (20-25 g), supplied by the National Center for the Laboratory Animals Production (CENPALAB, Cuba) were used. The conditions of adaptation and maintenance of the animals before carrying out the experiment were similar to those developed in non-limiting Example 2. The mice were divided into 5 experimental groups (7 animals group) distributed in: a control group (PBS 2 μL, icv), a seizure control group (KA 2 μL, icv) and three groups treated orally by gastric cannulation with compound 3 at doses of 1, 5, 50 mg/kg […] and KA 2 μL, icv. Compound 3 was prepared as a suspension in 5% carboxymethylcellulose (CMC) vehicle. […]
For the icv administration of KA the mice were anesthetized with 685.71 mg/kg with chloral hydrate i.p. and placed on a dual manipulator. […] Stereotaxic coordinates for the lateral ventricle were precisely measured as: anteroposterior […], lateral±[…] and dorsoventral […] relative to bregma and ventral dura with the tooth bar at […]. A burr hole was made in the skull by automatic microperforation attached to an arm of the stereotaxic apparatus. […]
Statistical Analysis All data are expressed as the mean±standard error of the mean (SEM), and were analyzed using a one-way analysis of variance followed by Turkey's post-hoc test. […]

[2] = system: memory loss induced by an acute administration of scopolamine (ESC); experiment: Morris water maze, two-day protocol, acute ESC model; type: in vivo, mice; details: long-term spatial memory
Protocol: Young male OF-1 mice (20-25 g), supplied by the National Center for the Laboratory Animals Production (CENPALAB, Cuba), were used. Before the experiment, the animals were adapted for seven days to laboratory conditions (controlled temperature 25±2° C., relative humidity 60±10% and light/dark cycles of 12 h). During this period, and during the experiment, the animals received ad libitum water and a standard diet for rodents supplied by CENPALAB. All procedures were carried out in accordance with the European Commission guidelines for the use and care of laboratory animals and approved by the Committee for the Care of Research Animals. The minimum number of animals and duration of observations required to obtain consistent data was used.
At the end of the adaptation period, the animals were randomly distributed according to their body weights in 5 experimental groups of 12 animals per group. […]
The experience was carried out for two days; a first day of training and a second day of testing. […] 24 hours after the last visible platform test (D2), the animals were evaluated in a series of three tests with the hidden platform (T1-T3). […]
All data are expressed as the mean±standard error of the mean (SEM). The Morris water maze data was analyzed in two ways. Escape latencies in the visible platform training phase were analyzed using a two-factor ANOVA (treatment×trial). […]

**Q.** What does the source list for `CSC(=S)NCCNC(=O)CCC(=O)Nc1cccc2ccccc12` [compound 3, methyl(2-{[4-(1-naphthylamino)-4-oxobutanoyl]amino}ethyl)dithiocarbamate]?
**A.** total seizure score (0-120 minutes) [1]: significant decrease in the total score; difference and ratio of escape latency, last visible-platform test vs first hidden-platform test [2]: differs significantly from the group with ESC
